In patent publication US11174237B2, “2-[4-(meihylaminomethyl)phenyl]-5-fluoro- benzofuran-7-carboxamide hydrochloride polymorph, preparation method therefor and application thereof” (SHANGHAI INSTITUTE OF MATERIA MEDICA, CHINESE ACADEMY OF …, priority 2017, dated 2021):

Assay: Thermogravimetric analysis (TGA) of the crystal forms
Assay type: physicochemical
Procedure: 4) TGA method Instrument model: Netzsch TG 209F3, temperature range 30-400° C., scan rate 10K/min, purge gas flow rate 25 mL/min, shielding gas flow rate 15 mL/min.

SMILES	thermal stability (conclusion from the DSC/TG experimental results)	temperature at which the crystal form begins to decompose according to the thermogravimetric analysis (TG, 30-400° C., scan rate 10K/min) [°C]
CNCc1ccc(-c2cc3cc(F)cc(C(N)=O)c3o2)cc1.Cl [crystal form A, 2-[4-(methylaminomethyl)phenyl]-5-fluoro-benzofuran-7-carboxamide hydrochloride]	good thermal stability	–
CNCc1ccc(-c2cc3cc(F)cc(C(N)=O)c3o2)cc1.Cl [crystal form C, 2-[4-(methylaminomethyl)phenyl]-5-fluoro-benzofuran-7-carboxamide hydrochloride]	–	250±20
